Results as given in patent US20140255968A1, “METHOD FOR FABRICATING A PATTERNED SUBSTRATE FOR A CELL CULTURE, A PATTERNED SUBSTRATE FOR CELL CULTURE, AND A CELL CHIP” (RESEARCH & BUSINESS FOUNDATION SUNGKYUNKWAN UNIVERSITY, priority 2013, published 2014).
Entries after “also recorded” stand apart in the source; their conditions may differ. Like-named read-outs stand apart in the source and are kept apart here.

Tested on: bovine aortic endothelial cells (BAECs)
Assay: Angiogenesis assay on patterned cell chip
Assay type: cell-based
Method: In an angiogenesis assay using the fabricated substrate, bovine aortic endothelial cells (BAECs) were used. To prevent contamination, the substrate fabricated in Example 1-2 was placed in a Petri dish and irradiated with UV light for 16 hours prior to the test. BAEC cells were seeded in 2 ml of complete medium (low glucose DMEM (Dulbecco's Modified Eagle's Medium, WELGENE) containing 1× penicillin/streptomycine (WELGENE) and 20% fetal bovine serum (FBS, WELGENE)) at a cell concentration of 2.5×10^5 cells/ml, and then cultured in a 5% CO2 incubator at 37° C. for 6 hours. Next, the complete medium was replaced with the following media. • untreated plate (normal control group): 10 ml of low-glucose DMEM containing 1× penicillin/streptomycin and 0.2% FBS; • LPS (lipopolysaccharide)-treated plate (negative control group): 10 ml of low-glucose DMEM containing 1× penicillin/streptomycin, 0.2% FBS and 100 ng/ml of LPS; or • VEGF (vascular endothelial growth factor)-treated plate (positive control group): 10 ml of low-glucose DMEM containing 1× penicillin/streptomycin, 0.2% FBS and 100 ng/ml of VEGF. To prevent cells on the substrate from being dried due to evaporation of the media in the incubator, the volume of the media was increased to 10 ml, and to more accurately confirm the effect of the positive control group (VEGF-treated plate), starvation basic medium having a decreased FBS (a kind of growth factor) concentration of 0.2% was used.

[1] = 100 ng/ml in low-glucose DMEM with 0.2% FBS, 18 hours, optical microscope

## vascular endothelial growth factor [VEGF]
  angiogenesis on the patterned cell chip compared with the untreated case: angiogenesis was induced and promoted
[1]
  formation of tube-shaped blood vessels: tube-shaped blood vessels were newly formed
  number of cells in the regions between cell adsorbing H2/He plasma treated areas, compared with untreated: proliferation of cells significantly increased; also recorded: significantly larger number of the cells

## lipopolysaccharide [LPS]
[1]
  angiogenesis on the patterned cell chip compared with the untreated case: angiogenesis was inhibited
  number of cells in the regions between cell adsorbing H2/He plasma treated areas, compared with untreated: significant decrease in the number of cells; also recorded: smaller number of cells
